The values below come from patent US9339469B2, “R(+)-N-methyl-propargyl-aminoindan” (Teva Pharmaceutical Industries, Ltd., priority 2011, dated 2016).

The conditions of series [1]: melt phase, 78 and 90° C. for 24, 72 or 137 hrs. As to the method: Samples intended to degrade under en inert atmosphere were flushed with nitrogen for 5 minutes before closing with a stepper.
The samples were introduced into a pre-heated oven and held at a constant temperature of 78 and 90° C. for 24, 72 or 137 hrs. After completion of the treatment the samples were refrigerated and analyzed.

The conditions of series [2]: in vivo; cited from earlier work.

The structures appear in SMILES notation.

For `C#CCN[C@@H]1CCc2ccccc21` [rasagiline, R(+)-N-propargyl-1-aminoindan], in series [1], the “formation of R(+)-N-methyl-PAI (summary of Table 1)” value is reported as “no R(+)-N-methyl-PAI was formed”. Also, the absolute bioavailability result in series [2] is given as “about 36%”.
